Values quoted from earlier work in US20130144636A1, “Method and System for Predicting Adverse Drug Reactions Using BioAssay Data” (The Board of Trustees of the Leland Stanford, Junior, …, priority 2011, published 2013).
Like-named read-outs stand apart in the source and are kept apart here.

Assays:
[1] = FDA drug label, DRUGDEX or literature case report
[2] = system: interleukin-1 (IL-1); conditions: in vitro
[3] = in vitro mutagenesis tests such as the Ames test
[4] = system: murine bone marrow; conditions: in vivo murine bone marrow micronucleus tests
[5] = biological target: glutathione-S-transferase μ (GSTP1) (Homo sapiens, UniProt P09211)
Sequence of glutathione-S-transferase μ (GSTP1) (P09211 2-210 limits assumed): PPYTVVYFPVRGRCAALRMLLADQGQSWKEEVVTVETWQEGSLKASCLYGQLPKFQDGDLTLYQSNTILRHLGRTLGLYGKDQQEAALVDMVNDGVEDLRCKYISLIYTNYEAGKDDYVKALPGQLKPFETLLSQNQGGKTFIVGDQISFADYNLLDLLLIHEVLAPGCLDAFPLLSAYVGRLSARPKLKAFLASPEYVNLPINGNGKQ

SMILES: Oc1c(I)cc(Cl)c2cccnc12 [clioquinol]
- known adverse drug reaction in humans [1]: associated with subacute myelo-optic neuropathy (SMON) syndrome

SMILES: CC(=O)Oc1cccc2c1C(=O)c1c(OC(C)=O)cc(C(=O)O)cc1C2=O [diacerein]
- inhibition of IL-1 synthesis [2]: directly inhibits the synthesis

SMILES: Oc1ccc(O)cc1 [hydroquinone]
- mutagenic activity in vitro [3]: but not in in vitro mutagenesis tests
- mutagenic activity in vitro ([3]; listed as Hydroquinone): inactive
- genotoxic carcinogenic activity [4]: genotoxic carcinogenic activity
- genotoxic carcinogenic activity ([4]; listed as Hydroquinone): carcinogenic

SMILES: CC(=O)Oc1ccccc1C(=O)Nc1ncc([N+](=O)[O-])s1 [nitazoxanide]
- inhibition of enzymatic activity [5]: inhibit the enzymatic activity
